Source: PMC12131788, “Discovery of natural CdnP inhibitors through structure-based virtual screening and molecular dynamics simulations” (Microbiology Spectrum, 2025)

What was measured:
CdnP (Rv2837c) = target: T1, CdnP (Rv2837c) (Mycobacterium tuberculosis, UniProt P71615); test: High-throughput enzymatic activity assay (coralyne/c-di-AMP fluorescence); type: biochemical; settings: for IC50: 100 nM CdnP, 15 µM c-di-AMP, 37°C, read-out: IC50 (half maximal inhibitory concentration); for inhibitory activity against CdnP: at concentrations as high as 1 mM (data not shown)
T1 construct: pET32a vector-encoded fusion (Trx / His6 / S-tag; composition from own knowledge of the vector, His tag consistent with Ni-NTA purification) (N); made in house; host or cells: Escherichia coli BL21(DE3)

CdnP [1] = target: T2, CdnP (Mycobacterium tuberculosis, UniProt P71615); test: Surface plasmon resonance (SPR) binding assay; settings: for kon: read-out: 1:1 binding ka
Description: Binding affinity between CdnP and test compounds was determined using a Biacore 1K instrument (Cytiva). Recombinant CdnP was immobilized on a Series S CM5 sensor chip according to manufacturer’s protocols. Association and dissociation kinetics were measured using a pre-established multi-cycle kinetics/affinity protocol with eight serially diluted compound concentrations in running buffer (10 mM HEPES, pH 7.4, 150 mM NaCl, 3 mM EDTA, 0.005% [vol/vol] Surfactant P20, and 5% [vol/vol] DMSO). Binding data were analyzed using the multi-cycle kinetics model to determine association rate (Ka), dissociation rate (Kd), and equilibrium dissociation constant (KD) values.

CdnP [2] = target: T2, CdnP; settings: cited from earlier work
[3] = 1:1 binding, multi-cycle kinetics

T2 sequence (P71615 whole entry, looked up): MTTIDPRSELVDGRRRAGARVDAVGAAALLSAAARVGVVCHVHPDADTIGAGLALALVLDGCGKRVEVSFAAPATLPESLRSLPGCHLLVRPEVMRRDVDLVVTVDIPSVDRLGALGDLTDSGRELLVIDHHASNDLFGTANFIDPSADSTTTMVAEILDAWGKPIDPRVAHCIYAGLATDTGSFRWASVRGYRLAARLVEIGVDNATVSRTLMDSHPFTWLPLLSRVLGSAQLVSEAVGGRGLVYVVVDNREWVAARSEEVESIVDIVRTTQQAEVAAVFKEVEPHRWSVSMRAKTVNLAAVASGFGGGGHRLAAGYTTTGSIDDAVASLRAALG
T1 sequence (P71615 whole entry, the tested form may be a part): as the sequence (P71615 whole entry, looked up) above

| SMILES | IC50 (CdnP (Rv2837c)) [µM] | Quality kinetics Chi^2 (CdnP [1]) [RU^2] | Rmax (CdnP [1]) [RU] | kd (CdnP [1]) [s⁻¹] | tc (CdnP [1]) | Kd (CdnP [1]; [3]) [µM] | kon (CdnP [1]) [M⁻¹ s⁻¹] | IC50 (CdnP [2]) [µM] | Kd (CdnP [1]) [µM] | inhibitory activity against CdnP (CdnP (Rv2837c)) | inhibition of CdnP (CdnP [2]) |
| --- | --- | --- | --- | --- | --- | --- | --- | --- | --- | --- | --- |
| C[C@@H]1O[C@@H](OC[C@H]2O[C@@H](Oc3cc(O)c4c(=O)cc(-c5ccc(O)cc5)oc4c3)[C@H](O[C@@H]3O[C@@H](C)[C@H](O)[C@@H](O)[C@H]3O)[C@@H](O)[C@@H]2O)[C@H](O)[C@H](O)[C@H]1O [Ligustroflavone] | 39.5 ± 1.74 | 4.90e-02 | 1.0 | 6.42e-06 | 1.16e+08 | 0.0189 | 339 |  |  |  |  |
| Cc1cc(O)c2c3c1C(=O)C1c4c(c(O)cc5cc(O)cc(C)c45)[C@@]3(COC2=O)[C@H]1O [Macrosporusone A] | 16.8 ± 0.44 | 2.46e+00 |  | 1.62e-07 | 1.02e+08 |  | 254000 |  |  |  |  |
| CC(OCCCCOC(C)n1cnc2c(=O)[nH]cnc21)n1cnc2c(=O)[nH]cnc21 (stereo not shown) [NCI 79195] |  |  |  |  |  |  |  | 9.66 |  |  |  |
| COc1ccc(-c2cc(=O)c3c(O)cc(O[C@@H]4O[C@H](CO)[C@@H](O)[C@H](O)[C@H]4O[C@@H]4O[C@@H](C)[C@H](O)[C@@H](O)[C@H]4O)cc3o2)cc1O [Neodiosmin] | 5.5 ± 1.94 | 8.92e-02 | 26.8 | 0.00229 | 1.17e+08 | 384 | 5.95 |  | 380 |  |  |
| COc1ccc([C@]2(C#N)CC[C@@H](C(=O)O)CC2)cc1OC1CCCC1 [Cilomilast, reference compound] | > 1000 | 3.17e-01 | 1733.5 | 0.465 | 6.30e+06 | 44200 | 10.5 |  |  | no detectable inhibitory activity | mild inhibition |
| CN1CC(=O)N2[C@H](c3ccc4c(c3)OCO4)c3[nH]c4ccccc4c3C[C@@H]2C1=O [tadalafil] |  |  |  |  |  |  |  |  |  | no detectable inhibitory activity | mild inhibition |
| O=C1CCc2cc(OCCCCc3nnnn3C3CCCCC3)ccc2N1 [Cilostazol, reference compound] | > 1000 | 7.64e-02 |  | 0.321 | 5.48e+09 | 4.18 | 76700 |  |  | no detectable inhibitory activity | mild inhibition |
| C[C@@H]1O[C@@H](O[C@H]2[C@H](Oc3cc(O)c4c(=O)cc(-c5ccc(O)cc5)oc4c3)O[C@H](CO)[C@@H](O)[C@@H]2O)[C@H](O)[C@H](O)[C@H]1O [Rhoifolin] | 20.3 ± 1.74 | 2.02e-01 |  | 0.209 | 1.49e+08 | 0.972 | 215000 |  | 0.97 |  |  |
| CCCc1nn(C)c2c(=O)[nH]c(-c3cc(S(=O)(=O)N4CCN(C)CC4)ccc3OCC)nc12 [sildenafil] |  |  |  |  |  |  |  |  |  | no detectable inhibitory activity | mild inhibition |
